In patent US20240208950A1, “COMPOSITIONS AND METHODS FOR TREATMENT OF CERVICAL AND OVARIAN CANCER” (SOUTH DAKOTA BOARD OF REGENTS, priority 2021, published 2024):

Tested on: ovarian cancer cell line A2780
Assay: MTT cell viable assay (cytotoxicity and anti-proliferation)
Format: cell-based
Conditions: Homo sapiens
Method: A biological assay was performed to study the potency of ORM-analogs by observing their pharmaceutical effects on living tissue (in vitro) and the effects of these analogs of unknown potency were compared to the effects of the standard (ormeloxifene). An MTT cell viable assay was first conducted to measure the cytotoxicity and anti-proliferation activity of synthesized analogs (Table 2 and FIG. 2).

COc1ccc2c(c1)OC(C)(C)C(c1ccccc1)C2c1ccc(OCCN2CCCC2)cc1 (stereo not shown) [Ormeloxifene, reference compound]
IC50: 17.5 µM
